This is an account of results in ChEMBL document CHEMBL1201862, “PubChem BioAssay data set” (2004).

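Protocol summary: plate cells (96-well), add compound at 5 concentrations, incubate 48 h, interpolate endpoints linearly. Abbreviation: GI50, concentration required for 50% inhibition of growth.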 The source made the active and inactive calls. No stated cut-off is given here; in the data, active = GI50 up to about 1.1 µM and inactive = higher.

What all share (test): NCI anticancer screen, dose series, 48 h
In assay [1] the test system is NCI-H226.
For assay [2], the system named is M14.
The test system of assay [3] is IGROV-1.
Assay [4] relates to HCT-15.
Assay [5] concerns HCT-116.
In assay [6] the test system is RPMI-8226.
In assay [7] the test system is OVCAR-4.
For assay [8], the system named is SNB-19.
Assay [9] relates to SK-MEL-5.
Assay [10] relates to 786-0.
Assay [11] has as its system A498.
Assay [12] relates to UACC-257.
Assay [13] has as its system Malme-3M.
The test system of assay [14] is NCI-H522.
Assay [15] relates to KM12.
Assay [16] deals with OVCAR-5.
The test system of assay [17] is NCI-H23.
In assay [18] the test system is DU-145.
The subject of assay [19] is PC-3.

For `Nc1ccn([C@@H]2C[C@H](CO)[C@@H](O)[C@H]2O)c(=O)n1`, the GI50 was > 57.7 µM (inactive) in assay [1]; > 57.7 µM (inactive) in assay [2]; > 57.7 µM (inactive) in assay [3]; above 57.7 µM in assay [4]; > 57.7 µM (inactive) in assay [5]; > 57.7 µM (inactive) in assay [6]. The GI50 in [7], in assay [8], in [9], in assay [10], in [11] and in assay [12] was > 57.7 µM (inactive) in each case. Also, the GI50 in assay [13], in assay [14] and in assay [15] was > 57.7 µM (inactive) throughout.

Consider `O=[N+]([O-])c1cccnc1S(=O)(=O)c1ccccc1`, for which the GI50 in [1] is 15.8 µM (inactive); in assay [2], 9.4 µM (inactive); in [3], 8.13 µM (inactive); in assay [4], 7.55 µM; in assay [5] it was 6.93 µM (inactive); in assay [6] it was 8.71 µM (inactive). The GI50 is 6.47 µM (inactive) in assay [7]; 19.8 µM (inactive) in assay [8]; 15.8 µM (inactive) in assay [16]; 15.8 µM (inactive) in [17]; 18.1 µM (inactive) in [9]; 2.48 µM (inactive) in assay [10]. The GI50 is 22.1 µM (inactive) in assay [11]; 17.4 µM (inactive) in [12]; 11.1 µM (inactive) in assay [13]; 1.46 µM (inactive) in assay [14]; 19.6 µM (inactive) in assay [15].

For the compound `CC(C)/C=C1\CCC(CN(C)C)C1=O` (stereo unspecified), the GI50 is 26.9 µM (inactive) in [1]; 1.77 µM (inactive) in [2]; 7.05 µM (inactive) in [3]; 1.81 µM (inactive) in assay [18]; 2.13 µM in assay [4]; 0.871 µM (active) in assay [5]. Also, the GI50 in assay [6] is 0.13 µM (active); in assay [7], 7.35 µM (inactive); in assay [8] it was 9.66 µM (inactive); in assay [16] it was 8.41 µM (inactive); in [17], 5.56 µM (inactive); in assay [9], 4.97 µM (inactive). For the same compound, the GI50 in assay [10] was 0.632 µM (active); in assay [11], 6.87 µM (inactive); in assay [19] it was 4.66 µM (inactive); in [12], 4.63 µM (inactive); in assay [13] it was 1.04 µM (active); in [14], 0.082 µM (active). The GI50 in assay [15] was 1.22 µM (inactive).

As for `COC(=O)N/N=C(\C)C(CN1CCCCC1)C(C1=C(O)c2ccccc2OC1)c1ccccc1` (stereo unspecified), the GI50 is > 100 µM (inactive) in [1]; > 100 µM (inactive) in [2]; > 100 µM (inactive) in [3]; above 100 µM in assay [4]; > 100 µM (inactive) in [5]; > 100 µM (inactive) in [6]. Besides, the GI50 in [7], in [8], in assay [16], in assay [17], in [9] and in assay [10] was > 100 µM (inactive) each time. For the same compound, the GI50 in [11], in assay [12], in assay [13], in assay [14] and in assay [15] was > 100 µM (inactive) throughout.

In the case of `O=C(CC1=Nc2nnc(CCCCCCCc3nnc4n3C(=O)C(CC(=O)c3ccccc3)=N4)n2C1=O)c1ccccc1`, the GI50 in [1] was > 100 µM (inactive); in [2], > 100 µM (inactive); in assay [3], > 100 µM (inactive); in [4], above 100 µM; in assay [5], > 100 µM (inactive); in assay [6] it was > 100 µM (inactive). Besides, the GI50 in assay [8], in assay [16], in assay [17], in assay [9], in assay [10] and in [11] was > 100 µM (inactive) in each case. The GI50 in assay [12], in assay [13], in [14] and in assay [15] was > 100 µM (inactive) throughout.

On to `c1ccc2c(c1)Nc1cccc3c1c-2nc1cc2ccccc2cc13`, for which the GI50 is 1.85 µM (inactive) in [1]; 2.12 µM (inactive) in assay [2]; 1.41 µM (inactive) in assay [3]; 1.7 µM (inactive) in [18]; 1.75 µM (inactive) in assay [5]; 1.87 µM (inactive) in assay [7]. The GI50 in assay [8] is 1.75 µM (inactive); in assay [16], 1.82 µM (inactive); in assay [17] it was 1.32 µM (inactive); in assay [9] it was 1.7 µM (inactive); in assay [10], 1.72 µM (inactive); in assay [11], 2.88 µM (inactive). Further, the GI50 was 1.53 µM (inactive) in assay [19]; 1.58 µM (inactive) in [12]; 1.69 µM (inactive) in assay [13]; 1.98 µM (inactive) in assay [14]; 1.62 µM (inactive) in assay [15].

With `N#Cc1c(-c2ccc([N+](=O)[O-])cc2)c(C#N)c(=O)n(NS(=O)(=O)c2ccccc2)c1-c1ccccc1`, the GI50 in assay [1] is > 100 µM (inactive); in [2] it was > 100 µM (inactive); in assay [3], > 100 µM (inactive); in assay [4], above 100 µM; in assay [5], > 100 µM (inactive); in [6], > 100 µM (inactive). For the same compound, the GI50 in assay [7], in assay [8], in [16], in assay [9], in [10] and in [11] was > 100 µM (inactive) in each case. Also, the GI50 in [19], in assay [12], in assay [13], in [14] and in assay [15] was > 100 µM (inactive) in each case.

As for `C[n+]1c2ccccc2cc2c(CNC(CCCNC(=N)N)C(=O)O)cccc21` (stereo unspecified), the GI50 in assay [1] is 3.05 µM (inactive); in assay [2], 3.31 µM (inactive); in assay [3] it was 7.4 µM (inactive); in [4], 0.394 µM; in assay [5] it was 0.301 µM (active); in assay [6] it was 0.0682 µM (active). The GI50 in assay [7] is 11.4 µM (inactive); in [8], 2.37 µM (inactive); in [16], 4.5 µM (inactive); in assay [17], 3.14 µM (inactive); in [9], 2.21 µM (inactive); in [10], 0.75 µM (active). Also, the GI50 in assay [11] is 3.51 µM (inactive); in [12], 0.638 µM (active); in assay [13] it was 2.05 µM (inactive); in assay [14], 1.4 µM (inactive); in assay [15], 0.448 µM (active).

Consider `O=C(Nc1ccn(CCI)c(=O)n1)c1ccccc1`, for which the GI50 in assay [1] was > 100 µM (inactive); in assay [2] it was > 100 µM (inactive); in [3], > 100 µM (inactive); in assay [4], above 100 µM; in assay [5] it was > 100 µM (inactive); in [6] it was > 100 µM (inactive). Further, the GI50 in assay [7], in assay [16], in assay [9], in assay [10], in [11] and in [12] was > 100 µM (inactive) in each case. Besides, the GI50 in assay [13], in assay [14] and in [15] was > 100 µM (inactive) each time.

For `Sc1nnc(-c2ccnc(-c3nnc(S)[nH]3)c2)[nH]1`, the GI50 in [1] is > 100 µM (inactive); in assay [2] it was > 100 µM (inactive); in assay [3] it was > 100 µM (inactive); in assay [4], above 100 µM; in assay [5], > 100 µM (inactive); in assay [6], > 100 µM (inactive). The GI50 in assay [7], in assay [8], in [16], in assay [17], in [9] and in assay [10] was > 100 µM (inactive) in each case. Further, the GI50 in [11], in assay [12], in [13], in [14] and in assay [15] was > 100 µM (inactive) throughout.

Regarding `COC(=O)C(C(=O)C(=O)Nc1ccccc1OC)c1csc(-n2nc(-c3ccccc3)cc2-c2ccccc2)n1` (stereo unspecified), the GI50 in assay [1] is > 100 µM (inactive); in assay [2] it was > 100 µM (inactive); in assay [3] it was > 100 µM (inactive); in assay [4] it was above 100 µM; in [5] it was > 100 µM (inactive); in assay [6] it was > 100 µM (inactive). In addition, the GI50 in [7], in [8], in assay [16], in [17], in assay [10] and in assay [11] was > 100 µM (inactive) throughout. The GI50 in [12] was > 100 µM (inactive); in assay [13], > 100 µM (inactive); in assay [14], > 100 µM (inactive); in assay [15] it was 95.9 µM (inactive).

Consider `CCOC(=O)c1nc2cc(C(F)(F)F)ccc2nc1Nc1ccc(C(=O)NC(C(=O)OCC)C(=O)OCC)cc1`, for which the GI50 in assay [1] is 13.7 µM (inactive); in assay [3], 20.1 µM (inactive); in assay [18] it was 51.6 µM (inactive); in assay [4], 26.5 µM; in assay [5], 19 µM (inactive); in assay [6] it was 11.5 µM (inactive). Besides, the GI50 in assay [7] was 10.6 µM (inactive); in [8] it was 18.2 µM (inactive); in assay [16] it was 45.1 µM (inactive); in assay [17], 35.5 µM (inactive); in assay [9], 20.5 µM (inactive); in [10], 14.3 µM (inactive). Further, the GI50 in [11] is 25.5 µM (inactive); in [19] it was 22.9 µM (inactive); in [12], 18.7 µM (inactive); in [13], 20 µM (inactive); in assay [14], 18.7 µM (inactive); in assay [15], 27.5 µM (inactive).
